In this series the test system is cucurbit leaf beetle (Aulacophora femoralis). Description: Test Example 10: sprayed cucumber leaves, cucurbit leaf beetle. Format: in vivo. As to conditions: 50 ppm, spray 10 mL/seedling, 2nd instar larvae, after 5 days. On the procedure: Next, Test examples are used to show efficacies of the Present compounds on controlling harmful arthropods. In the following Test examples, the tests were carried out at 25° C.
Each test compound is dissolved into a mixed solution (10 μL) of xylene, DMF, and a surfactant (at a volume ratio of xylene:DMF:surfactant=4:4:1) per 1 mg of the test compound, and water containing a spreader (0.03% by volume) is added thereto to prepare a diluted solution containing a prescribed concentration of each test compound.
Cucumber seedlings (on the developmental stage of the second to third true leaf) are planted in a plastic cup, and each of the diluted solutions is sprayed into the seedlings in the ratio of 10 mL/seedling. Thereafter, the second leaves are cut out and placed into a plastic cup, and 10 heads of the 2nd instar larvae of cucurbit leaf beetle (Aulacophora femoralis) are released into the cup, and the cup is covered with a lid. After 5 days, the number of the dead insects is counted, and the mortality of insects is calculated by the following equation. Mortality (%)=(Number of dead insects/10)×100

Compound `CCS(=O)(=O)c1cc(C(F)(F)F)ccc1-c1ncc(OCC(F)(F)C(F)C(F)(F)F)cn1` (racemic) [compound 2] came in with a mortality of at least 80%.

What is called mortality is the share of the test organisms that died. Low values mean more survivors, high ones fewer survivors.
